Laboratory results published in patent US11230538B2, “Herbicides” (SYNGENTA PARTICIPATIONS AG, priority 2016, dated 2022).

Key:
Format in all cases: in vivo
[1] = test system: Alopecurus myosuroides (ALOMY); assay: B2 Post-emergence herbicidal activity; set-up: key: 5=total damage to plant; 0=no damage to plant; details: post-emergence application, rate 1000 g/ha, evaluated after 13 days
Experimental: (§1) Seeds of a variety of test species were sown in standard soil in pots: Triticum aestivium (TRZAW), Avena fatua (AVEFA), Alopecurus myosuroides (ALOMY), Echinochloa crus-galli (ECHCG), Lolium perenne (LOLPE), Zea Mays (ZEAMX), Abutilon theophrasti (ABUTH), Amaranthus retroflexus (AMARE) and Setaria fabenri (SETFA). After 8 days cultivation (post-emergence) under controlled conditions in a glasshouse (at 24/16° C., day/night; 14 hours light; 65% humidity), the plants were sprayed with an aqueous spray solution derived from the formulation of the technical active ingredient in acetone I water (50:50) solution containing 0.5% Tween 20 (polyoxyethelyene sorbitan monolaurate, CAS RN 9005-64-5). The test plants were then grown in a glasshouse under controlled conditions (at 24/16° C., day/night; 14 hours light; 65% humidity) and watered twice daily. After 13 days, the test was evaluated (5=total damage to plant; 0=no damage to plant).

[2] = test system: Triticum aestivium (TRZAW); assay: B2 Post-emergence herbicidal activity; set-up: key: 5=total damage to plant; 0=no damage to plant; details: post-emergence application, rate 1000 g/ha, evaluated after 13 days
Experimental: as §1

Avena fatua (AVEFA) [3] = assay: B1 Pre-emergence herbicidal activity; set-up: key: 5=total damage to plant; 0=no damage to plant; details: pre-emergence application, rate 1000 g/ha, evaluated after 13 days
Experimental: as §1, with “fabenr” for “fabenri”, “After” for “After 8 days”, “for one day (pre-emergence)” for “(post-emergence)”

[4] = test system: Alopecurus myosuroides (ALOMY); assay: B1 Pre-emergence herbicidal activity; set-up: key: 5=total damage to plant; 0=no damage to plant; details: pre-emergence application, rate 1000 g/ha, evaluated after 13 days
Experimental: as §1, with “fabenr” for “fabenri”, “After” for “After 8 days”, “for one day (pre-emergence)” for “(post-emergence)”

[5] = test system: Triticum aestivium (TRZAW); assay: B1 Pre-emergence herbicidal activity; set-up: key: 5=total damage to plant; 0=no damage to plant; details: pre-emergence application, rate 1000 g/ha, evaluated after 13 days
Experimental: as §1, with “fabenr” for “fabenri”, “After” for “After 8 days”, “for one day (pre-emergence)” for “(post-emergence)”

[6] = test system: Echinochloa crus-galli (ECHCG); assay: B2 Post-emergence herbicidal activity; set-up: key to Post-emergence herbicidal activity, ECHCG (damage score 0-5): 5=total damage to plant; 0=no damage to plant; details: post-emergence application, rate 1000 g/ha, evaluated after 13 days
Experimental: as §1

[7] = test system: Echinochloa crus-galli (ECHCG); assay: B1 Pre-emergence herbicidal activity; set-up: key to Pre-emergence herbicidal activity, ECHCG (damage score 0-5): 5=total damage to plant; 0=no damage to plant; details: pre-emergence application, rate 1000 g/ha, evaluated after 13 days
Experimental: as §1, with “fabenr” for “fabenri”, “After” for “After 8 days”, “for one day (pre-emergence)” for “(post-emergence)”

Avena fatua (AVEFA) [8] = assay: B2 Post-emergence herbicidal activity; details: post-emergence application, rate 1000 g/ha, evaluated after 13 days
Experimental: as §1

Lolium perenne (LOLPE) [9] = assay: B2 Post-emergence herbicidal activity; details: post-emergence application, rate 1000 g/ha, evaluated after 13 days
Experimental: as §1

Lolium perenne (LOLPE) [10] = assay: B1 Pre-emergence herbicidal activity; set-up: key to Pre-emergence herbicidal activity, LOLPE (damage score 0-5): 5=total damage to plant; 0=no damage to plant; details: pre-emergence application, rate 1000 g/ha, evaluated after 13 days
Experimental: as §1, with “fabenr” for “fabenri”, “After” for “After 8 days”, “for one day (pre-emergence)” for “(post-emergence)”

Setaria fabenr (SETFA) = assay: B1 Pre-emergence herbicidal activity; set-up: key to Pre-emergence herbicidal activity, SETFA (damage score 0-5): 5=total damage to plant; 0=no damage to plant; details: pre-emergence application, rate 1000 g/ha, evaluated after 13 days
Experimental: as §1, with “fabenr” for “fabenri”, “After” for “After 8 days”, “for one day (pre-emergence)” for “(post-emergence)”

Setaria fabenri (SETFA) = assay: B2 Post-emergence herbicidal activity; set-up: key: 5=total damage to plant; 0=no damage to plant; details: post-emergence application, rate 1000 g/ha, evaluated after 13 days
Experimental: as §1

Structure (SMILES) | Post-emergence herbicidal activity, ALOMY (damage score 0-5) [1] | Post-emergence herbicidal activity, TRAZW (damage score 0-5) [2] | Pre-emergence herbicidal activity, AVEFA (damage score 0-5) (Avena fatua (AVEFA) [3]) | Pre-emergence herbicidal activity, ALOMY (damage score 0-5) [4] | Pre-emergence herbicidal activity, TRAZW (damage score 0-5) [5] | Post-emergence herbicidal activity, ECHCG (damage score 0-5) [6] | Pre-emergence herbicidal activity, ECHCG (damage score 0-5) [7] | Post-emergence herbicidal activity, AVEFA (damage score 0-5) (Avena fatua (AVEFA) [8]) | Post-emergence herbicidal activity, LOLPE (damage score 0-5) (Lolium perenne (LOLPE) [9]) | Pre-emergence herbicidal activity, LOLPE (damage score 0-5) (Lolium perenne (LOLPE) [10]) | Pre-emergence herbicidal activity, SETFA (damage score 0-5) (Setaria fabenr (SETFA)) | Post-emergence herbicidal activity, SETFA (damage score 0-5) (Setaria fabenri (SETFA))
O=C(CC1CCCCC1)Nc1ccc(-c2cncc(F)c2)nc1C(F)(F)F [Compound C19] | 0 | 0 | 2 | 0 | 0 | 4 | 3 | 3 | 1 | 0 | 5 | –
O=C(Nc1ccc(-c2cncc(F)c2)nc1C(F)(F)F)C1CCCCC1 [Compound C20] | 0 | 0 | 2 | 0 | 0 | 4 | 4 | 3 | 2 | 0 | 5 | –
O=C(Nc1ccc(-c2cncc(F)c2)nc1C(F)(F)F)C1CCC1 [Compound C21] | 0 | 0 | 2 | 0 | 0 | 5 | 4 | 3 | 2 | 1 | 5 | –
CC(C)C(=O)N(CC(=O)N(C)C)c1ccc(-c2cncc(F)c2)nc1C(F)(F)F [Compound C107] | 0 | 0 | 1 | 0 | 0 | 4 | 3 | – | – | 0 | 5 | 5
COCC(=O)N(CC(=O)N(C)C)c1ccc(-c2cncc(F)c2)nc1C(F)(F)F [Compound C84] | 1 | 0 | 1 | 0 | 0 | 3 | 2 | – | – | 1 | 5 | 4
CCCC(=O)Nc1ccc(-c2cncc(F)c2)nc1C(F)(F)F [Compound C22] | 0 | 0 | 2 | 0 | 0 | 4 | 4 | 3 | 2 | 1 | 5 | –
COCC(=O)N(CC=C(C)C)c1ccc(-c2cncc(F)c2)nc1C(F)(F)F [Compound C106] | 0 | 0 | 2 | 0 | 0 | 4 | 3 | – | – | 1 | 4 | 5
CC(C)(C)COCN(C(=O)c1ccccc1)c1ccc(-c2cncc(F)c2)nc1C(F)(F)F [Compound C76] | 0 | 1 | 0 | 0 | 0 | 3 | 1 | – | – | 0 | 5 | 4
CCN(CC)CCCN(C(=O)c1ccccc1)c1ccc(-c2cncc(F)c2)nc1C(F)(F)F [Compound C74] | 0 | 0 | 0 | 1 | 0 | 2 | 1 | – | – | 1 | 3 | 3
O=C(c1ccccc1)N(Cc1ccc(Cl)cc1)c1ccc(-c2cncc(F)c2)nc1C(F)(F)F [Compound C77] | 0 | 0 | 0 | 0 | 0 | 1 | 0 | – | – | 0 | 1 | 2
